These results are taken from US9663514B2 (Takeda Pharmaceutical Company Limited, priority 2011, dated 2017).

Broadly, the IC50 is the midpoint of a concentration-inhibition curve. Read a low IC50 as greater potency.

Structures are written as SMILES.

The target in this assay is T1, SYK (Homo sapiens, UniProt P43405).
T1 construct: The SYK kinase domain (residues 356-635) is amplified via PCR; made in house; host or cells: Sf9 insect cells (baculovirus, pFastBac1)
Description: SYK inhibition: in vitro assay of SYK-mediated phosphorylation of FAM-labeled substrate (Caliper LC-3000). Type of assay: biochemical. The note with it: SYK kinase domain (residues 356-635); 2.4 nM SYK and 45 μM ATP, 3 μM 5FAM-KKKKEEIYFFFG-NH2, RT 60 min, pH 7.3; pIC50 = −log(IC50), IC50 molar. On the procedure: The ability of compounds to inhibit SYK activity may be assessed using a variety of methods, including in vitro and in vivo assays. The following in vitro assay measures a test compound's ability to inhibit SYK-mediated phosphorylation of a FAM-labeled SYK-specific substrate (5FAM-KKKKEEIYFFFG-NH2).
SYK protein is prepared from cDNA encoding human spleen tyrosine kinase and is expressed in insect cells using a baculovirus expression vector. The cDNA (IMAGE: 3542895) is purchased from Open Biosystems. The SYK kinase domain (residues 356-635) is amplified via PCR and cloned into plasmid pFastBacl (Invitrogen) at BamHI/XbaI sites. Recombinant plasmid encoding Met-Ala-Lys-SYK(356-635)-HHHHHH is sequenced and transformed into E. coli DH10Bac strain. The recombinant bacmid DNA is isolated and transfected into Sf9 insect cells. Recombinant virus is harvested 72 h after transfection. High titer viral stock is prepared by infecting Sf9 cells at a multiplicity of infection (MOI) of approximately 0.01. A suspension of Sf9 cells (10 L) is infected with recombinant virus (MOI=5) and is incubated in a Wave Bioreactor (GE-Healthcare) for 48 h. The cells are harvested and stored at −80° C.
To purify the expressed protein, the frozen Sf9 cells (10 L) are broken into small (<1 cm) particles and suspended in a lysis buffer (300 mL) containing 20 mM Tris (pH 7.6), 0.25 mM TCEP, 100 mM NaCl, 5% glycerol and a protease inhibitor. The suspension is stirred at RT until completely thawed, lysed an additional 2-4 min on a rotary blade homogenizer, and then centrifuged at 4200 g for 1 h. Following centrifugation, the supernatant is poured through cheese cloth and combined with a nickel chelating resin (Probond Resin™, Invitrogen) which is pre-equilibrated in a wash buffer containing 10 mM Tris (pH 7.6), 0.25 mM TCEP, 300 mM NaCl, 5% glycerol, and 20 mM imidazole. The mixture is agitated for 3 h in a cold room and then centrifuged at 900 g for 10 min. The resin is dispersed in wash buffer (50 mL), centrifuged for 10 min at 900 g, re-dispersed in a small amount of wash buffer (5 mL), and then pour into a disposable Poly-Prep chromatography column, through which wash buffer is passed by gravity until no protein is observed in coomassie buffer (about 120 mL of wash buffer). An elution buffer (30 mL) containing 10 mM HEPES (pH 7.4), 150 mM NaCl, 10% glycerol, 5 mM DTT, and 400 mM imidazole is used to elute the SYK protein from the resin. The eluate is concentrated (5 mL) and further purified on a Superdex 200 column (1.2 mL/min for 160 min, 10 mM HEPES (pH 7.4), 10 mM NaCl, 10 mM MgCl, 0.1 mM EDTA, and 0.25 mM TCEP). The chromatographed fractions are run on SDS-PAGE and the requisite fractions are pooled and concentrated. Final delivery buffer is 10 mM HEPES (pH 7.4), 10 mM Methione, 150 mM NaCl, 10% glycerol, 5 mM DTT.
SYK inhibition is determined using a black 384 well plate format in buffer containing 50 mM HEPES, 10 mM NaCl, 10 mM MgCl2, 0.2 mM EDTA, 0.01% EDA (Brij®35), 1 mM DTT, and 0.1 mg/ml BSA at pH 7.3. Each test compound is prepared in DMSO using 2-fold serial dilutions for 11 data points, which are added to the buffer so that each dilution contains 3% DMSO. To each well is added 2 μL of 3 μM SFAM-KKKKEEIYFFFG-NH2 (in buffer), 2 μL of diluted test compound (3% DMSO in buffer), and 2 μL of 2.4 nM SYK and 45 μM ATP (in buffer). The reaction mixture is incubated at RT for 60 min, and quenched by adding 50 mM Hepes, 30 mM EDTA, 0.1% Triton X-100 (pH 7.3). To quantify the fluorescent-labeled substrate and product following reaction, the test plate is loaded on a Caliper LC-3000, which measures percent of conversion by microfluidic-based separation. Corresponding IC50 values are calculated by non-linear curve fitting of the compound concentrations and percent of inhibition to the standard IC50 equation and reported as pIC50, i.e., −log(IC50), where IC50 is molar concentration.
As for `Cn1ncc2sc(-c3nc(N[C@@H]4CCOC[C@@H]4N)c(F)c4c3C(=O)NC4)cc21` [Example 30, 6-((3R,4R)-3-Aminotetrahydro-2H-pyran-4-ylamino)-7-fluoro-4-(1-methyl-1H-thieno[3,2-c]pyrazol-5-yl)-1H-pyrrolo[3,4-c]pyridin-3(2H)-one], half-maximal inhibition (IC50) required 0.1 nM. The value for `N[C@H]1CCCC[C@H]1Nc1nc(CCc2ccccc2)c2c(c1F)CNC2=O` [Example 47, 6-((1R,2S)-2-Aminocyclohexylamino)-7-fluoro-4-phenethyl-1H-pyrrolo[3,4-c]pyridin-3 (2H)-one] was 100 nM; that for `N#Cc1ccc(-c2nc(N[C@@H]3CCOC[C@@H]3N)c(F)c3c2C(=O)NC3)s1` [Example 8, 5-(6-((3R,4R)-3-Aminotetrahydro-2H-pyran-4-ylamino)-7-fluoro-3-oxo-2,3-dihydro-1H-pyrrolo[3,4-c]pyridin-4-yl)thiophene-2-carbonitrile] was 20 nM; that for `N[C@H]1CCCC[C@H]1Nc1nc(-c2ccns2)c2c(c1F)CNC2=O` [Example 5, 6-((1R,2S)-2-Aminocyclohexylamino)-7-fluoro-4-(isothiazol-5-yl)-1H-pyrrolo[3,4-c]pyridin-3 (2H)-one] was 3.98 nM.

In turn, `N[C@H]1CCCC[C@H]1Nc1nc(-c2cc3ccncc3s2)c2c(c1F)CNC2=O` [Example 15, 6-((1R,2S)-2-Aminocyclohexylamino)-7-fluoro-4-(thieno[2,3-c]pyridin-2-yl)-1H-pyrrolo[3,4-c]pyridin-3(2H)-one] gave a half-inhibitory concentration (IC50) of 0.158 nM. The value for `Cc1nn(C)c2cc(-c3nc(N[C@@H]4CCOC[C@@H]4N)c(F)c4c3C(=O)NC4)sc12` [Example 32, 6-((3R,4R)-3-Aminotetrahydro-2H-pyran-4-ylamino)-4-(1,3-dimethyl-1H-thieno[3,2-c]pyrazol-5-yl)-7-fluoro-1H-pyrrolo[3,4-c]pyridin-3(2H)-one] was 0.2 nM; that for `N[C@H]1COCC[C@H]1Nc1nc(-c2ccns2)c2c(c1F)CNC2=O` [Example 4, 6-((3R,4R)-3-Aminotetrahydro-2H-pyran-4-ylamino)-7-fluoro-4-(isothiazol-5-yl)-1H-pyrrolo[3,4-c]pyridin-3(2H)-one] was 12.6 nM. For `Cc1c2sc(-c3nc(N[C@@H]4CCCC[C@@H]4N)c(F)c4c3C(=O)NC4)cc2nn1C` [Example 33, 6-((1R,2S)-2-Aminocyclohexylamino)-4-(2,3-dimethyl-2H-thieno[3,2-c]pyrazol-5-yl)-7-fluoro-1H-pyrrolo[3,4-c]pyridin-3(2H)-one] the value was 0.631 nM; for `N[C@H]1CCCC[C@H]1Nc1nc(-c2cc3cnccc3s2)c2c(c1F)CNC2=O` [Example 18, 6-((1R,2S)-2-Aminocyclohexylamino)-7-fluoro-4-(thieno[3,2-c]pyridin-2-yl)-1H-pyrrolo[3,4-c]pyridin-3(2H)-one], 0.316 nM; for `N[C@H]1COCC[C@H]1Nc1nc(C#Cc2ccccc2)c2c(c1F)CNC2=O` [Example 44, 6-((3R,4R)-3-Aminotetrahydro-2H-pyran-4-ylamino)-7-fluoro-4-(phenylethynyl)-1H-pyrrolo[3,4-c]pyridin-3(2H)-one], 63.1 nM. The value for `N[C@H]1CCCC[C@H]1Nc1nc(-c2cc3ccc(F)cc3s2)c2c(c1F)CNC2=O` [Example 20] was 0.251 nM; that for `N[C@H]1CCCC[C@H]1Nc1nc(/C=C/c2ccc(Cl)cc2)c2c(c1F)CNC2=O` [Example 50, 6-((1R,2S)-2-Aminocyclohexylamino)-4-(4-chlorostyryl)-7-fluoro-1H-pyrrolo[3,4-c]pyridin-3(2H)-one] was 2 nM. `N[C@H]1CCCC[C@H]1Nc1nc(-c2cc3n(c2)CCOC3)c2c(c1F)CNC2=O` [Example 35, 6-((1R,2S)-2-Aminocyclohexylamino)-4-(3,4-dihydro-1H-pyrrolo[2,1-c][1,4]oxazin-7-yl)-7-fluoro-1H-pyrrolo[3,4-c]pyridin-3(2H)-one] had an IC50 of 10 nM.
